Experimental data as given in publication PMC2361651 (British Journal of Cancer, 2005).

Legend:
[1] = test system: tumour vascular permeability; experiment: DCE-MRI of tumour vascular permeability; assay type: in vivo, human; settings: for increase in leakage space (Ve): final scan (median 35 days), soft-tissue sarcoma patient
Method: All patients were asked to have a baseline DCE-MRI examination within the 7 days prior to receiving the study compound under study conditions as described above. Follow-up scans were performed on day 1 and then after 4 weeks of therapy. After the first three patients' examination, the protocol was amended to day 1, 2 weeks, 6 weeks and 6 weekly thereafter if the patient remained on study. All examinations were performed on a 1.5 T MRI system (Vision, Siemens Medical Systems, Erlangen, Germany) approximately 4 h after the commencement of the treatment infusion.
The image collection protocol comprised routine orthogonal T1- and T2-weighted images taken through the previously identified target lesion, to allow localisation and bi-dimensional tumour measurement. The dynamic imaging used a five-slice saturation recovery turbo fast low-angle shot sequence (SRTF) taken through the centre of the target lesion. Proton density-weighted images were acquired, followed by a series of T1-weighted images employing the same gain and image scaling factors. The sequential T1-weighted images were acquired every 9 s for 6.3 min (42 time points).
Gadopentetate dimeglumine (Magnevist Schering Health Care Limited, Burgess Hill, Sussex, UK) was injected intravenously using a mechanical power injector, through a peripherally placed cannula. This contrast was administered as a bolus after the third baseline data point was acquired at a dose of 0.1 mmol kg^−1 body weight. The use of the mechanical power injector allowed the contrast to be delivered within 10 s. The contrast injection was followed by a 20 ml flush of normal saline.
Using the resultant scanned images, two trained observers (AP, CH) blinded to the clinical outcome of the patients evaluated the patterns of enhancement within a designated region of interest. Contrast medium kinetic parameters were then derived for each pixel using MR Imaging Workbench software®. Quantitative and semiquantitative statistical analysis was then performed on these parameters using StatsDirect software (Research Solutions, Cambridge, UK).

[2] = test system: treatment refractory solid tumours; experiment: Tumour response (WHO response criteria); assay type: in vivo, human
Source text: The study protocol was approved by the Research Ethics Committee of the Royal […] Trust. Written informed consent was obtained from all participants. All patients had treatment refractory solid tumours and were required to have at least one tumour deposit suitable for DCE-MRI evaluation. A suitable lesion had to be ⩾2 cm in size and in an anatomical position not subject to significant respiratory excursion. […] Exclusion criteria included patients with a known history of allergy to radiologic contrast agents or to Cremophor®; a Karnovsky performance status of <60%; a history of myocardial infarction, severe or unstable angina within 6 months of the study; diabetes mellitus with clinical evidence of severe peripheral vascular disease or ulceration; a medical condition or device implant that would interfere with or prevent MRI scans; or a serious concomitant medical condition that could interfere with the participation in the study or interpretation of study results.

[3] = mid-treatment (2 weeks), one patient, squamous cell carcinoma nasopharynx, 110 mg m^−2
[4] = 27 patients treated, two not evaluable

Cc1cc(C)c(/C=C2\C(=O)Nc3ccccc32)[nH]1 [SU5416, Z-3-[(2,4-dimethylpyrrol-5-yl)methylidenyl]-2-indolinone]
increase in leakage space (Ve) ([1]; 48 mg m^−2): 36.5%
increase in leakage space (Ve) ([1]; final expansion cohort): 34.5%
change in Ktrans ([1]; increase, day 1, one patient with metastatic melanoma (target lesion brain)): 91%
change in Ktrans [1, 3]: −51.9%
change in Ve [1, 3]: −48.6%
patients with progressive disease as best response [2, 4]: 14 patients
patients with stable disease at 6 weeks [2, 4]: 12 patients
patients remaining on therapy for more than 12 weeks ([2]; haemangioendothelioma, ovarian and adrenocortical carcinoma): three
